Molecules are shown by their SMILES. A value given as a limit tells only on which side of the number the result lay.

The record followed here is ChEMBL document CHEMBL1121629, “1-(Aminoalkyl)-6-aryl-4-H-s-triazolo[4,3-a][1,4]benzodiazepines with antianxiety and antidepressant activity” (1980).

What all share (format): functional
Assay [1] is filed under the species Mus musculus. The assay is described as follows: Tested for antagonism of bicuculline-induced tonic-extensor convulsions (B) in mice.
Assay [2] is filed under the species Mus musculus. The assay can be described thus: Tested for antagonism of nicotine-induced death (D) in mice.
Assay [3] is filed under the species Mus musculus. The assay is described as follows: Tested for antagonism of nicotine-induced tonic extensor convulsions (TE) in mice.
The species named for assay [4] is Mus musculus. The assay can be described thus: Tested for antagonism of pentylenetetrazole-induced clonic convulsions (P) in mice.
For assay [5], the species on record is Mus musculus. The assay can be described thus: Tested for potentiation of gamma-butyrolactone induced sleep (gamma-B) in mice.
The species named for assay [6] is Mus musculus. The assay is described as follows: Tested for potentiation of yohimbine toxicity in aggregated mice(Y).
The species named for assay [7] is Mus musculus. The assay can be described thus: Prolongation of hypoxic survival time (HS) in mice.
The species entered for assay [8] is Mus musculus. The assay can be described thus: Tested for stereotyped gnawing and licking behavior of mice pretreated with apomorphine (AG).
Assay [9] is filed under the species Mus musculus. The assay is described as follows: Tested for antagonism of oxotremorine hypothermia (OX) in mice.

In the case of `NCCc1nnc2n1-c1ccc(Cl)cc1C(c1ccccc1Cl)=NC2`, the ED50 was 25 mg/kg in [1]; 4.5 mg/kg in assay [2]; 4.5 mg/kg in [3]; 21 mg/kg in assay [4]; 21 mg/kg in assay [5]; > 50 mg/kg in [6]. For the same molecule, the ED50 in assay [7] was > 50 mg/kg; in assay [8], 14.9 mg/kg; in assay [9], 29.7 mg/kg.

`C#CCN(C)Cc1nnc2n1-c1ccc(Cl)cc1C(c1ccccc1Cl)=NC2`: the ED50 in assay [1] was 0.1 mg/kg; in [2], 0.045 mg/kg; in assay [3], 0.036 mg/kg; in [4] it was 0.021 mg/kg; in assay [5] it was 0.1 mg/kg; in [6] it was > 50 mg/kg. Besides, the ED50 is 0.4 mg/kg in assay [7], 21 mg/kg in [8] and > 50 mg/kg in [9].

Take `Clc1ccc2c(c1)C(c1ccccc1)=NCc1nnc(CN3CCN(c4ccccc4)CC3)n1-2`: the ED50 is > 30 mg/kg in assay [1]; 159 mg/kg in assay [2]; 159 mg/kg in [3]; > 30 mg/kg in assay [4]; > 30 mg/kg in [5]; > 30 mg/kg in [6]. Further, the ED50 in assay [7] was > 50 mg/kg; in [8], > 30 mg/kg; in assay [9] it was > 30 mg/kg.

On to `C#CCN(C)Cc1nnc2n1-c1ccc(Cl)cc1C(c1ccccc1)=NC2`, for which the median effective dose (ED50) came to 0.5 mg/kg in assay [1]; 0.14 mg/kg in [2]; 0.14 mg/kg in assay [3]; 0.3 mg/kg in [4]; 0.3 mg/kg in assay [5]; 18 mg/kg in assay [6]. Also, the results for the ED50 in [7], in assay [8] and in assay [9] were > 50 mg/kg, 4.4 mg/kg and 30 mg/kg, respectively.

Take `C=CCN(C)Cc1nnc2n1-c1ccc(Cl)cc1C(c1ccccc1)=NC2`: the 50% effective dose (ED50) is 3.7 mg/kg in assay [1]; 1.1 mg/kg in [2]; 1.1 mg/kg in assay [3]; 4.4 mg/kg in [4]; 1.6 mg/kg in assay [5]; > 50 mg/kg in [6]. Also, the ED50 in [7], in assay [8] and in assay [9] was > 50 mg/kg in each case.

Turning to `Clc1ccc2c(c1)C(c1ccccc1)=NCc1nnc(CNCC3CC3)n1-2`, the ED50 was 1.9 mg/kg in assay [1]; 0.2 mg/kg in [2]; 0.2 mg/kg in [3]; 3.1 mg/kg in assay [4]; 1.3 mg/kg in [5]; 50 mg/kg in assay [6]. For the same molecule, the 50% effective dose (ED50) in assay [7] was 1 mg/kg; in assay [8], > 50 mg/kg; in assay [9] it was > 50 mg/kg.

Turning to `CCN(CC)OCc1nnc2n1-c1ccc(Cl)cc1C(c1ccccc1)=NC2`, the median effective dose (ED50) in [1] was 1.1 mg/kg; in [2], 0.5 mg/kg; in assay [3], 0.56 mg/kg; in assay [4], 1.1 mg/kg; in assay [5], 0.2 mg/kg; in assay [6], > 50 mg/kg. The values for the 50% effective dose (ED50) in [7], in assay [8] and in assay [9] were 6.3 mg/kg, > 50 mg/kg and 5.3 mg/kg, respectively.

Consider `Clc1ccc2c(c1)C(c1ccccc1)=NCc1nnc(CN3CCCC3)n1-2`, for which the 50% effective dose (ED50) was found to be 12.5 mg/kg in assay [1]; 4.5 mg/kg in [2]; 3.6 mg/kg in assay [3]; 17.7 mg/kg in assay [4]; 7.4 mg/kg in assay [5]; 100 mg/kg in [6]. For the same molecule, the ED50 in assay [7] turned out to be 2 mg/kg; in assay [8] it was 14.9 mg/kg; in [9], 56 mg/kg.

With `Clc1ccc2c(c1)C(c1ccccc1)=NCc1nnc(CNC3CC3)n1-2`, the 50% effective dose (ED50) was 1.6 mg/kg in assay [1]; 0.28 mg/kg in assay [2]; 0.25 mg/kg in assay [3]; 3.1 mg/kg in assay [4]; 1.1 mg/kg in assay [5]; > 50 mg/kg in assay [6]. Also, the values for the 50% effective dose (ED50) in [7], in assay [8] and in [9] were 40 mg/kg, > 50 mg/kg and > 50 mg/kg, respectively.

Consider `CCN(CC)CCCc1nnc2n1-c1ccc(Cl)cc1C(c1ccccc1)=NC2`, for which the median effective dose (ED50) in assay [1] is > 100 mg/kg; in [2], 13 mg/kg; in [3] it was 11 mg/kg; in assay [4], > 100 mg/kg; in [5], > 100 mg/kg; in [6], 56 mg/kg. The ED50 in assay [7] was > 50 mg/kg; in assay [8], 100 mg/kg; in assay [9] it was 31.6 mg/kg.

Regarding `CN(Cc1nnc2n1-c1ccc(Cl)cc1C(c1ccccc1)=NC2)CC1CC1`, the median effective dose (ED50) in assay [1] is 2.6 mg/kg; in assay [2], 0.6 mg/kg; in [3], 0.4 mg/kg; in assay [4], 3.1 mg/kg; in assay [5] it was 1.1 mg/kg; in assay [6], > 50 mg/kg. Besides, the ED50 was 30 mg/kg in assay [7], > 50 mg/kg in [8] and > 50 mg/kg in [9].

With `CC(N)c1nnc2n1-c1ccc(Cl)cc1C(c1ccccc1Cl)=NC2` (stereo not given), the median effective dose (ED50) was 0.2 mg/kg in assay [1]; 0.025 mg/kg in assay [2]; 0.023 mg/kg in assay [3]; 2.2 mg/kg in assay [4]; 0.2 mg/kg in [5]; > 50 mg/kg in [6]. The ED50 in assay [7] is 0.02 mg/kg; in assay [8], > 50 mg/kg; in assay [9] it was > 50 mg/kg.

Consider `C#CCNC(C)c1nnc2n1-c1ccc(Cl)cc1C(c1ccccc1)=NC2` (stereo not given), for which the ED50 in assay [1] was determined as 1.6 mg/kg; in assay [2] it was 1.1 mg/kg; in assay [3] it was 1.1 mg/kg; in [4], 3.1 mg/kg; in assay [5] it was 0.8 mg/kg; in assay [6], 21 mg/kg. For the same molecule, the ED50 is 20 mg/kg in assay [7], > 50 mg/kg in assay [8] and > 50 mg/kg in assay [9].

Take `CN(C)CCc1nnc2n1-c1ccc(Cl)cc1C(c1ccccc1Cl)=NC2`: the 50% effective dose (ED50) in [1] was determined as 0.5 mg/kg; in assay [2] it was 0.28 mg/kg; in [3], 0.28 mg/kg; in assay [4], 0.3 mg/kg; in [5] it was 0.4 mg/kg; in assay [6], 29.7 mg/kg. Also, the 50% effective dose (ED50) in [7] was 1.3 mg/kg; in assay [8], 6.3 mg/kg; in assay [9], > 50 mg/kg.

For `NCc1nnc2n1-c1ccc(Cl)cc1C(c1ccccc1)=NC2`, the ED50 in [1] was 14.9 mg/kg; in assay [2] it was 0.28 mg/kg; in assay [3], 0.22 mg/kg; in assay [4], 0.35 mg/kg; in [5], 0.8 mg/kg; in [6], 35.4 mg/kg. Further, the values for the median effective dose (ED50) in assay [7], in assay [8] and in assay [9] were 0.8 mg/kg, 2.6 mg/kg and 29.7 mg/kg, respectively.
